Data taken from PubChem BioAssay (NCI).
“And” between values parts separate entries of the source, which are not always exact repeats. Identical values can stand only once.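 Protocol summary: plate cells (96-well), add compound at 5 concentrations, incubate 48 h, interpolate endpoints linearly. Abbreviation: GI50, concentration required for 50% inhibition of growth. Definition used: TGI = concentration required for complete inhibition of growth.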

Key:
Assay in all cases: growth of human tumour cells (NCI), 48 h
[1] = tested on: MDA-MB-435
[2] = tested on: BT-549 breast
[3] = tested on: NCI-H522 lung
[4] = tested on: SR leukemia
[5] = tested on: DU-145 prostate
[6] = tested on: MALME-3M melanoma
[7] = tested on: SF-268 CNS
[8] = tested on: M14 melanoma
[9] = tested on: MDA-MB-231 breast
[10] = tested on: IGROV1 ovarian

| Compound | GI50 [1] | TGI [1] | GI50 [2] | TGI [2] | GI50 [3] | TGI [3] | GI50 [4] | TGI [4] | GI50 [5] | TGI [5] | GI50 [6] | TGI [6] | GI50 [7] | TGI [7] | GI50 [8] | TGI [8] | GI50 [9] | TGI [9] | TGI [10] | GI50 [10] |
| --- | --- | --- | --- | --- | --- | --- | --- | --- | --- | --- | --- | --- | --- | --- | --- | --- | --- | --- | --- | --- |
| COc1cccc(/C=C/C(=O)c2ccc(SC)cc2)c1OC | 17.8 µM | 35.3 µM | 20800 nM | 40.5 µM | 19.2 µM | 38.9 µM | 4.43 µM | 79.5 µM | 20.4 µM | 40.6 µM | 16.7 µM | 34.7 µM | 20.2 µM | 42.3 µM | 17.2 µM | 31.1 µM | 17300 nM | 36.4 µM | – | – |
| O=C1C(=O)N(c2ccc(Cl)cc2)C(=O)C(=O)C1c1nc2ccccc2o1 | – | – | – | – | – | > 100 µM | – | – | – | – | – | > 100 µM | – | > 100 µM | – | > 100 µM | – | – | > 100 µM | – |
| O=c1c2ccc(S(=O)(=O)c3ccc4c(=O)n5c6ccccc6nc5c5cccc3c45)c3cccc(c32)c2nc3ccccc3n12 | – | > 100 µM | – | 50.5 µM | – | > 100 µM | – | – | – | > 100 µM | – | > 100 µM | – | > 100 µM | – | > 100 µM | – | 59.9 µM | 18.2 µM | – |
| O=C(O)C[C@@H](Cl)[C@H](NC(=O)OCc1ccccc1)C(=O)O | – | – | – | – | – | > 100 µM | – | – | – | – | – | > 100 µM | – | > 100 µM | – | > 100 µM | – | – | > 100 µM | – |
| CC1(C)S[C@@H]2[C@H](N3C(=O)c4ccccc4C3=O)CN2[C@H]1NC(=O)N[C@@H]1N2C[C@@H](N3C(=O)c4ccccc4C3=O)[C@H]2SC1(C)C | – | > 100 µM | – | – | – | > 100 µM | – | – | – | > 100 µM | – | > 100 µM | – | 81.3 µM | – | > 100 µM | – | > 100 µM | > 100 µM | – |
| NCCc1ccc(S(=O)(=O)F)cc1 | 65.1 µM | > 100 µM | 27900 nM | > 100 µM | 73.4 µM | > 100 µM | – | – | 37 µM | > 100 µM | 96.5 µM | > 100 µM | > 100 µM | > 100 µM | > 100 µM | > 100 µM | – | – | > 100 µM | 71.7 µM |
| CSC(=NC#N)S/C=C/C(=O)c1ccccc1 | 34.7 µM | > 100 µM | 29200 nM | 70.4 µM | 19.8 µM | 47.8 µM | 12.9 µM | 69.4 µM | 20.6 µM | 46.3 µM | 31.2 µM | 74.7 µM | 43.8 µM | > 100 µM | 24.7 µM | 65.8 µM | 39200 nM | > 100 µM | – | – |
| CCC(=O)N1C(=O)OCC1C(C)C (stereo not drawn) | – | – | – | – | – | – | – | – | – | – | – | > 100 µM | – | > 100 µM | – | > 100 µM | – | – | > 100 µM | – |
| CC(C)C12Cc3c(ccc4ccccc34)OC1(C)Oc1ccc3ccccc3c1C2 (stereo not drawn) | – | – | – | – | – | > 100 µM | – | > 100 µM | – | – | – | > 100 µM | – | > 100 µM | – | > 100 µM | – | – | > 100 µM | – |
| N/N=C1\C(=O)N(Cc2ccccc2)C(=O)C1C(=O)NCc1ccccc1 (stereo not drawn) | – | – | – | – | – | > 100 µM | – | > 100 µM | – | – | – | > 100 µM | – | > 100 µM | – | > 100 µM | – | – | > 100 µM | – |
| Nc1c(C(=O)Nc2ccccc2)sc2nc3c(cc12)CCCCC3 | 0.205 µM | 0.522 µM | 819 nM | 20.1 µM | 4.9 µM | > 100 µM | 0.337 µM | 15.2 µM | 0.619 µM | 31.4 µM | – | – | 1.1 µM | 54.4 µM | 0.278 µM | 0.945 µM | 1620 nM | 42 µM | > 100 µM | 6.08 µM |
| O=S(=O)([O-])c1ccc(N=Cc2ccccc2[O-])cc1.O=S(=O)([O-])c1ccc(N=Cc2ccccc2[O-])cc1.[Co+2] | – | – | – | – | – | – | 30.3 µM | > 100 µM | – | – | > 100 µM | > 100 µM | 20.7 µM | 79.3 µM | 79.6 µM | > 100 µM | – | – | > 100 µM | > 100 µM |
| Cc1ccc(Nc2nccc(N(C)c3ccc4c(C)n(C)nc4c3)n2)cc1S(N)(=O)=O | 3.93 µM and 0.758 µM and 6.37 µM | > 100 µM and > 10 µM and 34.4 µM | 1700 nM and 1460 nM and 5020 nM | 7.66 µM and > 10 µM and 36.6 µM | 5.33 µM and 4 µM and 10.7 µM | 39 µM and > 10 µM and 28 µM | 4.08 µM and 3.49 µM and 5.95 µM | > 100 µM and > 10 µM and 37.9 µM | 5.21 µM and 5.4 µM and 11.5 µM | > 100 µM | – | > 74.4 µM | 5.26 µM and 3.17 µM and 9.96 µM | > 100 µM | – | – | 3720 nM and 1440 nM and 5880 nM | > 100 µM | > 100 µM | – |
| O=S(=O)(CCN1CCOCC1)Nc1cc(-c2ccc3ncnc(Nc4ccc(F)c(Cl)c4)c3c2)cnc1Cl | 0.712 µM | 10.3 µM | 254 nM | 2.59 µM | – | – | 0.799 µM | 6.96 µM | 0.869 µM | 25.6 µM | 0.115 µM | 0.93 µM | 0.407 µM | 27.4 µM | 0.754 µM | 9.42 µM | 1090 nM | 4.82 µM | 0.515 µM | 0.137 µM |
| COc1ccc2c(c1)c(-c1nc(-c3c[nH]c4ncccc34)cs1)cn2CCCN1CCCCC1 | 1.7 µM | 3.21 µM | 3280 nM | 12.7 µM | – | – | – | – | 1.65 µM | 3.13 µM | – | – | 1.52 µM | 3.17 µM | 1.79 µM | 3.51 µM | 1660 nM | 3.27 µM | – | – |
| CC(CC(=O)N1C(=O)C(C)(C)[C@@H](O)[C@H]1CC(C)C(Cl)(Cl)Cl)C(Cl)(Cl)Cl (stereo partly drawn) | – | – | – | – | – | > 100 µM | – | – | – | – | – | > 100 µM | – | > 100 µM | – | > 100 µM | – | – | > 100 µM | – |
| COC(OC)c1cc2c(cc1C=O)OCO2 | – | – | – | – | – | > 100 µM | – | > 100 µM | – | – | – | 96.5 µM | – | > 100 µM | – | > 100 µM | – | – | > 100 µM | – |
| CO[C@@H]1C=C[C@@]23c4cc5c(cc4CN(C[C@@H]2O)[C@H]3C1)OCO5 | – | – | – | – | – | 50.7 µM | – | 77.6 µM | – | – | – | 76 µM | – | > 100 µM | – | 31.5 µM | – | – | > 100 µM | – |
| CSCS(=O)C[C@H](CO)NC(=O)/C=C/c1c(C)[nH]c(=O)[nH]c1=O (stereo partly drawn) | – | – | – | – | 1.35 µM | 3.3 µM and 2.36 µM | – | 22.8 µM | – | – | 1.08 µM | 3.08 µM and 2.05 µM | 0.571 µM | 3.86 µM and 1.37 µM | – | 2.79 µM | – | – | 9.35 µM and 14.1 µM | 1.78 µM |
| O=c1[nH]c2ccccc2c2nc3ccccc3n12 | – | > 100 µM | – | > 100 µM | – | 28.2 µM | – | – | – | > 100 µM | – | 72.7 µM | – | > 100 µM | – | > 100 µM | – | > 100 µM | > 100 µM | – |
| COc1ccc(/C=C2\CN(C(=O)C(Cl)Cl)C/C(=C\c3ccc(OC)cc3)C2=O)cc1 | – | – | 2190 nM | 8.13 µM | – | – | 0.357 µM | > 100 µM | – | – | 1.92 µM | 4.61 µM | 2.95 µM | > 100 µM | – | – | – | – | – | – |
